Results taken from PubChem BioAssay AID330 (DTP/NCI, 2004).
“And” between values parts separate entries of the source, which are not always exact repeats. Identical values can stand only once. Inconclusive results and toxic doses are left out. How the source made its calls: active means survival T/C of 150% or more; inactive means T/C below 125% in these data.

System: P388 leukemia ip, CD2F1 mice, survival T/C
Test: NCI In Vivo Anticancer Drug Screen. Data for tumor model P388 Leukemia (intraperitoneal) in CD2F1 (CDF1) mice
Conditions: endpoint: median survival time, higher = longer survival
Method in brief: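 Mice carrying the transplanted tumor received test compound or vehicle. Survival was recorded in each group, and the value is the treated-group measurement divided by that of the vehicle-treated control group.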

[1] = dose: 12.5 mg/kg/injection, schedule: Q01DX005 (ip), vehicle: Klucel (hydroxypropylcellulose) (HPC)
[2] = dose: 25.0 mg/kg/injection, schedule: Q01DX005 (ip), vehicle: saline with Tween-80
[3] = dose: 50.0 mg/kg/injection, schedule: Q01DX005 (ip), vehicle: saline with Tween-80
[4] = dose: 100.0 mg/kg/injection, schedule: Q01DX005 (ip), vehicle: saline with Tween-80
[5] = dose: 60.0 mg/kg/injection, schedule: Q01DX005 (ip), vehicle: saline with Tween-80
[6] = dose: 120.0 mg/kg/injection, schedule: Q01DX005 (ip), vehicle: saline with Tween-80
[7] = dose: 240.0 mg/kg/injection, schedule: Q01DX005 (ip), vehicle: saline with Tween-80
[8] = dose: 50.0 mg/kg/injection, schedule: Q01DX005 (ip), vehicle: Klucel (hydroxypropylcellulose) (HPC)
[9] = dose: 100.0 mg/kg/injection, schedule: Q01DX005 (ip), vehicle: Klucel (hydroxypropylcellulose) (HPC)
[10] = dose: 200.0 mg/kg/injection, schedule: Q01DX005 (ip), vehicle: Klucel (hydroxypropylcellulose) (HPC)
[11] = dose: 50.0 mg/kg/injection, schedule: Q01DX009 (ip), vehicle: saline
[12] = dose: 100.0 mg/kg/injection, schedule: Q01DX009 (ip), vehicle: saline
[13] = dose: 200.0 mg/kg/injection, schedule: Q01DX009 (ip), vehicle: saline
[14] = dose: 12.5 mg/kg/injection, schedule: Q01DX005 (ip), vehicle: saline with Tween-80
[15] = dose: 50.0 mg/kg/injection, schedule: Q01DX009 (ip), vehicle: Klucel (hydroxypropylcellulose) (HPC)
[16] = dose: 100.0 mg/kg/injection, schedule: Q01DX009 (ip), vehicle: Klucel (hydroxypropylcellulose) (HPC)
[17] = dose: 200.0 mg/kg/injection, schedule: Q01DX009 (ip), vehicle: Klucel (hydroxypropylcellulose) (HPC)

Measured: T/C

COc1ccc(/C=N/Nc2cc(C)nc3cc4c(cc23)OCO4)c2ccccc12
inactive: dose: 1.56 mg/kg/injection, schedule: Q01DX005 (ip), vehicle: Klucel (hydroxypropylcellulose) (HPC) 109 % of control | dose: 3.12 mg/kg/injection, schedule: Q01DX005 (ip), vehicle: Klucel (hydroxypropylcellulose) (HPC) 100 % of control | dose: 6.25 mg/kg/injection, schedule: Q01DX005 (ip), vehicle: Klucel (hydroxypropylcellulose) (HPC) 100 % of control and 102 % of control | [1] 110 % of control

COc1ccc2c3c(c4ccccc4c2c1)C(=O)OC3=O
inactive: [2] 87 % of control | [3] 87 % of control | [4] 109 % of control

CCN(CC)CCOC(=O)Nc1cc(C(F)(F)F)ccc1Cl
inactive: [5] 111 % of control | [6] 109 % of control | [7] 90 % of control

CC(=O)Nc1ncnc2c1c(C(N)=O)cn2C1OC(COC(C)=O)C(OC(C)=O)C1OC(C)=O (stereo not given)
inactive: dose: 1.88 mg/kg/injection, schedule: Q01DX005 (ip), vehicle: saline 107 % of control | dose: 3.75 mg/kg/injection, schedule: Q01DX005 (ip), vehicle: saline 117 % of control

Cc1ccc(S(=O)(=O)C(C#N)CCC(=O)c2ccc(Cl)cc2)cc1 (stereo not given)
inactive: [8] 107 % of control | [9] 106 % of control | [10] 105 % of control

O=C(Nc1ccccc1)/C(N=Nc1ccc([N+](=O)[O-])cc1Cl)=N/Nc1ccccc1S(=O)(=O)O
inactive: [8] 102 % of control | [9] 101 % of control | [10] 91 % of control

Cc1cc([N+](=O)[O-])c(C)c(Br)c1C
inactive: dose: 50.0 mg/kg/injection, schedule: Q01DX009 (ip), vehicle: saline with Tween-80 90 % of control | dose: 100.0 mg/kg/injection, schedule: Q01DX009 (ip), vehicle: saline with Tween-80 92 % of control | dose: 200.0 mg/kg/injection, schedule: Q01DX009 (ip), vehicle: saline with Tween-80 99 % of control

CC(=O)c1ccc2c(c1)c1c(C)c3c[n+](C)ccc3c(C)c1n2C
inactive: dose: 200.0 mg/kg/injection, schedule: Q01DX001 (ip), vehicle: saline with Tween-80 115 % of control

CCO/C=N\Nc1ccc2nnc(Cl)n2n1
inactive: [11] 92 % of control | [12] 103 % of control | [13] 93 % of control

O=C(/C=C/c1c(-c2ccccc2)[nH]c2ccccc12)c1ccc([N+](=O)[O-])cc1
inactive: [5] 97 % of control | [6] 90 % of control | [7] 87 % of control

CCCC(=O)Nc1ccn(C2OC(CO)C(O)C2O)c(=O)n1 (stereo not given)
inactive: dose: 25.0 mg/kg/injection, schedule: Q01DX009 (ip), vehicle: saline 99 % of control | [11] 96 % of control | [12] 94 % of control | [13] 96 % of control

CS/N=C(/c1ccc(/C(=N/SC)N(C)C)cc1)N(C)C
inactive: dose: 60.0 mg/kg/injection, schedule: Q01DX005 (ip), vehicle: Klucel (hydroxypropylcellulose) (HPC) 106 % of control | [5] 100 % of control | dose: 120.0 mg/kg/injection, schedule: Q01DX005 (ip), vehicle: Klucel (hydroxypropylcellulose) (HPC) 106 % of control | [6] 102 % of control | [7] 99 % of control

COc1cc2nc3cc([N+](=O)[O-])ccc3c(NCCNCC(C)(C)O)c2cc1OC
inactive: dose: 6.25 mg/kg/injection, schedule: Q01DX005 (ip), vehicle: saline with Tween-80 102 % of control and 105 % of control and 96 % of control | [14] 109 % of control and 115 % of control and 117 % of control | [2] 117 % of control and 118 % of control and 121 % of control

CC(C)C12CC(COCc3ccccc3)OC1=NC(=O)NC2=O (stereo not given)
inactive: [15] 112 % of control | [16] 103 % of control | [17] 94 % of control

CCNC(=O)OCc1c(COC(=O)NCC)c(-c2ccc(F)cc2)n2c1CCC2
inactive: dose: 3.13 mg/kg/injection, schedule: Q01DX009 (ip), vehicle: distilled water + Tween-80 123 % of control

Cc1cc2c(c3c1C(C)CCC3=O)C(C)(C)CC2(C)C (stereo not given)
inactive: dose: 50.0 mg/kg/injection, schedule: Q01DX005 (ip), vehicle: saline + Tween-80 + alcohol 101 % of control | dose: 100.0 mg/kg/injection, schedule: Q01DX005 (ip), vehicle: saline + Tween-80 + alcohol 108 % of control | dose: 200.0 mg/kg/injection, schedule: Q01DX005 (ip), vehicle: saline + Tween-80 + alcohol 104 % of control

CCCNc1nc2c(c(=O)n1-c1ccccc1)C=C(C(=O)OC)CCN2S(=O)(=O)c1ccc(C)cc1
inactive: [5] 108 % of control | [6] 101 % of control | [7] 105 % of control

CN(C)CCCOC(=O)Cc1cccc2c(=O)cc(-c3ccccc3)oc12
inactive: [11] 101 % of control | [12] 99 % of control | [13] 118 % of control

Cl.O=C([O-])C1C[SH+]C(C(O)C(O)C(O)C(O)CO)N1.O=C([O-])C1C[SH+]C(C(O)C(O)C(O)C(O)CO)N1.[Pd+2] (stereo not given)
inactive: dose: 100.0 mg/kg/injection, schedule: Q01DX001 (ip), vehicle: saline 103 % of control | dose: 200.0 mg/kg/injection, schedule: Q01DX001 (ip), vehicle: saline 104 % of control | dose: 400.0 mg/kg/injection, schedule: Q01DX001 (ip), vehicle: saline 95 % of control

NC(=O)C1=C2NC(=O)c3ccccc3C2C2=C1CCCC2 (stereo not given)
inactive: [1] 90 % of control | dose: 25.0 mg/kg/injection, schedule: Q01DX005 (ip), vehicle: Klucel (hydroxypropylcellulose) (HPC) 92 % of control | [8] 98 % of control and 105 % of control

O=C(O)C#Cc1cccnc1
inactive: [5] 106 % of control | [6] 98 % of control | [7] 91 % of control

COc1cc2c(cc1Cl)nc1c(=O)[nH]c(=O)nc-1n2CCN1CCCC1
inactive: [14] 100 % of control | [2] 108 % of control | [3] 111 % of control and 115 % of control | [4] 116 % of control | dose: 200.0 mg/kg/injection, schedule: Q01DX005 (ip), vehicle: saline with Tween-80 114 % of control

C[N+]12CCC34C5=CC(=O)C(=O)C=C5[N+]5(C)C(=O)CC6OCC=C(C1)C(CC32)C6C45 (stereo not given)
inactive: dose: 7.5 mg/kg/injection, schedule: Q01DX005 (ip), vehicle: saline 102 % of control | dose: 15.0 mg/kg/injection, schedule: Q01DX005 (ip), vehicle: saline 104 % of control | dose: 30.0 mg/kg/injection, schedule: Q01DX005 (ip), vehicle: saline 97 % of control

Cc1ccc(/C(CBr)=N/N=C(/CBr)c2ccc(C)cc2)cc1
inactive: [15] 100 % of control | [16] 92 % of control | [17] 98 % of control

CCCCN(CCC#N)c1ccc(/C=C/c2ccnc3ccccc23)cc1
inactive: dose: 25.0 mg/kg/injection, schedule: Q01DX009 (ip), vehicle: Klucel (hydroxypropylcellulose) (HPC) 96 % of control | [15] 96 % of control

CC(C)=CCc1c(O)ccc(C(=O)C2C(c3c(O)cc(-c4cc5ccc(O)cc5o4)cc3O)C=C(C)CC2c2ccc(O)cc2O)c1O (stereo not given)
inactive: dose: 3.75 mg/kg/injection, schedule: Q01DX005 (ip), vehicle: water 94 % of control | dose: 7.5 mg/kg/injection, schedule: Q01DX005 (ip), vehicle: water 103 % of control | dose: 15.0 mg/kg/injection, schedule: Q01DX005 (ip), vehicle: water 99 % of control | dose: 30.0 mg/kg/injection, schedule: Q01DX005 (ip), vehicle: water 110 % of control | dose: 60.0 mg/kg/injection, schedule: Q01DX005 (ip), vehicle: water 113 % of control
